Test results from patent US8637050B2, “Peptide vaccines against group A streptococci” (The United States of America, as represented by the …, priority 2001, dated 2014).

system: rabbit sera prepared against whole M protein; assay: ELISA: peptide recognition by anti-M protein rabbit sera; format: binding
Protocol: Overlapping peptides representing each M type were assessed for their immunogenicity using ELISA and dot-immunoblot.
Levels of anti-M protein antibodies in mouse sera were determined by an enzyme-linked immunosorbent assay (ELISA) using either synthetic peptides or whole M protein as antigen. Microtiter plates (DYNEX Immulon 2 HB) were coated with 10 μg/ml antigen in 10 mM phosphate-buffered saline (PBS) at 4° C. overnight. Plates were rinsed three times with wash buffer (0.05% Tween 20 in 10 mM PBS, pH 7.2) and blocked with 1% BSA in PBS for one hour at 37° C. The appropriate test sera were applied at a starting dilution of 1:1000 and serially diluted two fold down the plate in PBS. Plates were incubated at 37° C. for 30 minutes and subsequently rinsed three times. Goat anti-rabbit or goat anti-mouse Ig-peroxidase conjugate diluted 1:10,000 in PBS was added to all wells and incubated for two hours at 37° C. Plates were rinsed three times with wash buffer and freshly prepared TMB peroxidase (Kirkegaard and Perry Laboratories) was added. Reactions were quenched with 0.18 M H2SO4 after 30 minutes at room temperature and OD450 was measured with a Labsystems Multiskan plate reader using Ascent software. ELISA titers are expressed as the reciprocal of the last dilution which gave a reading OD450>0.10.
The immunoreactivity of several synthetic peptides was determined by ELISA using rabbit sera prepared against whole M protein. The synthetic peptides are representative of relatively small portions of the M protein N-terminus; therefore, it was advantageous to determine if the epitopes contained within particular peptides were immunoreactive with sera prepared against whole M protein. It was shown that the whole anti-M protein rabbit sera of the respective serotypes could bind to each of the synthetic peptides within that serotype. However, some peptides were more highly immunoreactive than others, thus being better suited for use in the animal studies.

Row | Sequence | immunoreactivity by ELISA using rabbit sera prepared against whole M protein
1 | CIRLRHHENKDLKARLENAMEV [Peptide M1-8] | confirmed
2 | CAELYNKIQELEEGKAELFDK [st2967-6] | confirmed
3 | CENSMLQANNDNLTDQNKNLTD [Peptide M6-4] | confirmed
4 | CTQLYTKHNSNYQQYNAQAGR [Peptide M3-11] | confirmed
5 | CREVTNELTASMWKAQADSAK [Peptide M58-2] | confirmed
6 | CQRAKAALDKYELENHDLKTKN [Peptide M5-4] | confirmed
7 | CSELYLQQYYDNKSNGYKGDW [Peptide M12-7] | confirmed
8 | CKDEVLSKFSVPGHVWAHERE [Peptide M101-2] | confirmed
9 | CRDITEAGVSKFWKSKFDAEQN [Peptide M82-2] | confirmed
10 | CEKLREELQQYYALSDAKEEE [Peptide M22-6] | confirmed
11 | CHEREKNDKLSSENEGLK [Peptide M101-3] | confirmed
12 | CLEEERGEHLDKIDELKEELK [Peptide M89-8] | confirmed
13 | CDLEEERGKLLNKLDKVEEEHK [Peptide M77-4] | confirmed
14 | CKQRSELYLQQYYDNKSNRYK [Peptide M12-6] | confirmed
15 | CDSSSRDITEAGVSKFWKSKFD [Peptide M82-1] | confirmed
16 | CQHKNNALTSENESLRREKDR [Peptide M94-2] | confirmed
17 | CTEHEKLRDEYYTLIDAKEEE [Peptide M28-5] | confirmed
18 | CESSNNAESSNISQESKLINT [Peptide M22-1] | confirmed

Row | Sequence | immunoreactivity by ELISA using rabbit sera prepared against whole M protein
19 | CKKEAKLSEAELHDKIKNLEEEK [Peptide M2-2] | confirmed
20 | CEIQNHQLTVENKKLKTDKEQ [Peptide M18-3] | confirmed
21 | CDVLNNTPHNQLRDAYAGAFRR [Peptide M41-4] | confirmed
22 | CEEHPDVVAARESVLNNVR [Peptide M43-1] | confirmed
23 | CRATADNKDELIKRANGYEIQ [Peptide M18-4] | confirmed
24 | CDSDNINRFVSVKDNEKELHN [Peptide M89-6] | confirmed
25 | CELHNEIADLEEERGEHLDKID [Peptide M89-4] | confirmed
26 | CLNQVTQLYTKHNSNYQQYNA [Peptide M3-6] | confirmed
27 | CNSKNPVPVKKEAKLSEAELHDK [Peptide M2-1] | confirmed
28 | CRSVSTNSGSVSTPYNNLLNE [Peptide M92-2] | confirmed
29 | CLRQKEENDKLKLEKKGLETE [Peptide M43-4] | confirmed
30 | CDNQSPAPVKKEAKKLNEAE [Peptide M73-1] | confirmed
31 | CLNKLDKVEEEHKKDHEQLEK [Peptide M77-5] | confirmed
32 | CTVTRGTVNDPQRAKETLDKYE [Peptide M5-6] | confirmed
33 | CQLRDPYAGAFRRNNELEKIIQE [Peptide M41-5] | confirmed
34 | CKFERLKRRSELYLQQYYDNK [Peptide M12-5] | confirmed
35 | CNENKSLRRERDNYLNYLYEK [Peptide M59-3] | confirmed
